Test results reported in patent US10264787B1, “Natural mosquito larvicide” (BIOVECBLOK, s.r.l., priority 2017, dated 2019).

Tested on: Larvae and pupae of Anopheles gambiae, An. stephensi, Aedes albopictus and Ae. aegypti
Details: after 24 hours post application; 0.03 g tyrosine in 200 ml breeding water; first to fourth-instar larvae
Protocol: The pre-adult developmental stages were grown under these conditions: 28° C., 80% relative humidity and a photoperiod of 12 h light followed by 12 h dark.
Mosquito larvicidal/pupicidal tests were carried out based on the WHO standardized procedures and guidelines for larvicidal assay.
For each mosquito species, 24 hours before the assay to reduce the larval stress, we prepared 6 trays [15 cm (width), 15 cm (length) and 6.5 cm (deep)] one for each tested products, containing 200 ml of breeding water which includes 40 mosquito larvae (first, second, third, fourth-instars) and 10 pupae. Each assay comprised of 3 replicates.
Mortality was recorded every 30 minutes from beginning for the pre-adult developmental stages (larvae and pupe). […] The dead larvae and pupae were recorded, and the average percentage mortality was calculated.

N[C@@H](Cc1ccc(O)cc1)C(=O)O [tyrosine]
larval mortality: about 60%
